Experiments:
S1P1 [1] = molecular target: T1, S1P1 (Homo sapiens, UniProt P21453); assay: Method A: Receptor [35S] GTPγS Binding Assay, S1P1; assay type: biochemical
T1 construct: expressed in transfected cells; host or cells: CHO cells
Protocol: (§1) Method A: Receptor [35S] GTPγS Binding Assays
(§2) Compounds were loaded in a 384 FALCON® v-bottom plate (0.5 μl/well in a 3-fold dilution). Membranes prepared from S1P1/CHO cells or EDG3-Gal5-bla HEK293T cells were added to the compound plate (40 μl/well, final protein 3 μg/well) with MULTIDROP®. [^35S]GTP (1250 Ci/mmol, Perkin Elmer) was diluted in assay buffer: 20 mM HEPES, pH7.5, 10 mM MgCl2, 150 mM NaCl, 1 mM EGTA, 1 mM DTT, 10 μM GDP, 0.1% fatty acid free BSA, and 10 μg/ml Saponin to 0.4 nM. 40 μl of the [^35S] GTP solution was added to the compound plate with a final concentration of 0.2 nM. The reaction was kept at room temperature for 45 min. At the end of incubation, all the mixtures in the compound plate were transferred to a 384 well FB filter plates via GPCR robot system. The filter plate was washed with water 4 times by using the modified manifold Embla plate washer and dried at 60° C. for 45 min. 30 μA of MicroScint 20 scintillation fluid was added to each well for counting at Packard TOPCOUNT®. EC50 is defined as the agonist concentration that corresponds to 50% of the Ymax (maximal response) obtained for each individual compound tested.
(§3) Compounds of the present invention and Comparative Compound A were tested in the Receptor [^35S] GTPγS Binding Assays (Method A) and Receptor [^35S] In some instances, the value is an average of multiple experiments where N is the number of experiments conducted that provided satisfactory dose response curves. When more than one batch of an example was tested, the value presented is from a batch which allowed a comparison of GTPγS S1P1 and GTPγS S1P3 in which the most number of experiments were performed. Preferably, the same batch was examined in Method A and Method B. Data was not averaged across different batches of an example compound.

S1P1 [2] = molecular target: T1, S1P1; assay: Method B: Receptor [35S] GTPγS SPA Binding Assay, S1P1; assay type: biochemical
Protocol: (§4) Method B: Receptor [^35S] GTPγS SPA Binding Assays
(§5) Membranes prepared from S1P1 or S1P3 transfected CHO cells (2 μg protein) were incubated in 96-well white plates (CORNING® 3693) with test compounds diluted in DMSO, in 50 μl of reaction mixture containing 7.5 μA WGA-PVT beads (20 mg/ml), and 5 μM GDP, 20 mM HEPES pH 7.4, 100 mM NaCl, 1 mM EDTA, 5 mM MgCl2, 10 μg/ml saponin, 0.1% BSA, and 1 μM leupeptin. The assay was initiated with the addition of […] of 0.2 nM [^35S]-GTPγS (1250 Ci/mmol; NEN) in assay buffer. After 90 min incubation at room temperature, spin the plate at 1000 rpm for 5 min. The bound radionuclides were measured at TOPCOUNT®, expressed as % response relative to S1P (1 μM) activation. Data was analyzed using the four parameter logistic equation in Excel. The four parameters in the equation, Y=A+((B−A)/(1+((EC50/X)^D))), are described as following: A is the Y value (agonist activity) at the bottom plateau; B is the Y value at the top plateau; EC50 is the X value (agonist concentration) when the response is halfway between bottom and top; D is Hill coefficient. Curves were not generated for compounds having Ymax values were below 50%.
as §3

circulating lymphocytes [3] = assay: Blood Lymphocyte Reduction Assay (BLR) in rats; assay type: in vivo, Lewis rats; details: oral
Protocol: (§6) Blood Lymphocyte Reduction Assay (BLR) in Rodents
(§7) Lewis rats or BALB/c mice were dosed orally with test article (as a solution or suspension in the vehicle) or vehicle alone (polyethylene glycol 300, “PEG300”). Blood was drawn at 4 hr and 24 h by retro-orbital bleeding. Blood lymphocyte counts were determined on an ADVIA 120 Hematology Analyzer (Siemens Healthcare Diagnostics). The results were measured as a reduction in the percentage of circulating lymphocytes as compared to the vehicle treated group at the 4 hr and 24 hr measurement. The results represent the average results of all animals within each treatment group (n=3-4).
(§8) Compounds of the present invention were tested in the Blood Lymphocyte Reduction assay (BLR) described hereinabove and the results are shown in Table D for rats and Table E for mice.

circulating lymphocytes [4] = assay: Blood Lymphocyte Reduction Assay (BLR) in mice; assay type: in vivo, BALB/c mice; details: oral
Protocol: as §6, §7, §8

C57BL/6 mice = assay: Mouse Experimental Autoimmune Encephalomyelitis Assay (EAE); assay type: in vivo; details: for Clinical Score on Day 24, Mean: vehicle mean 2.63
Protocol: Mouse Experimental Autoimmune Encephalomyelitis Assay (EAE)
Mice (C57BL/6 female, 6-8 weeks of age, Charles River, n=10-12 treatment group) were immunized subcutaneously with 150 μg MOG35-55 emulsified 1:1 with […] Freund's adjuvant (sigma) supplemented with 150 μg Mycobacterium tuberculosis H37RA (Difco Laboratories). 400 ng of pertussis toxin (CalBiochem) was injected intraperitoneally on the day of immunization and two days later. Animals were dosed once daily with the test article (as a solution or suspension in the vehicle) or vehicle alone (polyethylene glycol 300, “PEG300”) starting from 1 day after immunization. Clinical scoring and body weight were taken 3 times per week until the end of the study on day 24. Clinical scoring system: 0.5: partial tail weakness; 1: limp tail or waddling gait with tail tonicity; 1.5: waddling gait with partial tail weakness; 2: waddling gait with limp tail (ataxia); 2.5: ataxia with partial limb paralysis; 3: full paralysis of one limb; 3.5: full paralysis of one limbs with partial paralysis of a second limb; 4: full paralysis of two limbs; 4.5: moribund; 5: death. A compound of the present invention was tested in the Mouse Experimental Autoimmune Encephalomyelitis assay described hereinabove and the results are shown in Table H.

S1P3 [5] = molecular target: T2, S1P3 (Homo sapiens, UniProt Q99500); assay: Method A: Receptor [35S] GTPγS Binding Assay, S1P3; assay type: biochemical; design: expressed in transfected cells; details: EDG3-Gal5-bla HEK293T cell membranes
T2 sequence (Q99500 whole entry): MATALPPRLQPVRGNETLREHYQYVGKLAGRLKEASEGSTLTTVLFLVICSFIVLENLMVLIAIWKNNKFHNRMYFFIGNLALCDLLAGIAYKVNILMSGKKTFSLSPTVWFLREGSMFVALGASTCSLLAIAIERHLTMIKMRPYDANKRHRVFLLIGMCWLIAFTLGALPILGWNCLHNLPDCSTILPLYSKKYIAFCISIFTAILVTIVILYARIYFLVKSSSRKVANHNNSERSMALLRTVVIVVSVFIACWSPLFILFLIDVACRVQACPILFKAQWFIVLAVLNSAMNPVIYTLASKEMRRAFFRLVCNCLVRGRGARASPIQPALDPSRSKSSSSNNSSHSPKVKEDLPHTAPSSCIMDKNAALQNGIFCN
Protocol: as §1, §2, §3

S1P3 [6] = molecular target: T2, S1P3; assay: Method B: Receptor [35S] GTPγS SPA Binding Assay, S1P3; assay type: biochemical; design: expressed in transfected cells; host or cells: CHO cells; details: S1P3 transfected CHO cell membranes
Protocol: as §4, §5, §3

T1 sequence (P21453 whole entry): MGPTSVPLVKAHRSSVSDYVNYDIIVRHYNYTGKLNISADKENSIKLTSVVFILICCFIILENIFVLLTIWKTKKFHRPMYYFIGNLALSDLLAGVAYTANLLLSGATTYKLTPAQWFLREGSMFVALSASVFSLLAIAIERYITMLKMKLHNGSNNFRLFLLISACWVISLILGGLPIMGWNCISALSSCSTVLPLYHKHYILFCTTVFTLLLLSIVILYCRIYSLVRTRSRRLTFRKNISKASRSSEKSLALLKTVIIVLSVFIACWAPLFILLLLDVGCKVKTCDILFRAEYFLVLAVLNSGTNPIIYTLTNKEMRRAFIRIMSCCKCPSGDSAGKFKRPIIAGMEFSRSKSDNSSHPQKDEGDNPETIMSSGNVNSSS

- EC50 (S1P1 [1]; Method A, S1P1/CHO cell membranes): 0.0029 µM
- GTPγS S1P3/S1P1 (Method A) (S1P1 [1]; ratio of S1P3 EC50 to S1P1 EC50, Method A): 2,300
- EC50 (S1P1 [2]; Method B (SPA), S1P1 transfected CHO cell membranes): 0.0005 µM
- GTPγS S1P3/S1P1 (Method B) (S1P1 [2]; ratio of S1P3 EC50 to S1P1 EC50, Method B): 8,800
- EC50 (S1P3 [5]): 6.7 µM
- EC50 (S1P3 [6]): 4.4 µM
Compound: O=C(O)C1CN(Cc2ccc(-c3noc(-c4cnn(-c5ccccn5)c4C(F)(F)F)n3)cc2)C1 [Example 1, 1-(4-(5-(1-(Pyridin-2-yl)-5-(trifluoromethyl)-1H-pyrazol-4-yl)-1,2,4-oxadiazol-3-yl)benzyl)azetidine-3-carboxylic acid]
- % reduction in lymphocytes at 4 hr. (circulating lymphocytes [3]; 0.04 mg/kg): 49%
- % reduction in lymphocytes at 24 hr. (circulating lymphocytes [3]; 0.04 mg/kg): 6%
- % reduction in lymphocytes at 4 hr. (circulating lymphocytes [3]; 0.2 mg/kg): 77%
- % reduction in lymphocytes at 24 hr. (circulating lymphocytes [3]; 0.2 mg/kg): 15%
- % reduction in lymphocytes at 4 hr. (circulating lymphocytes [3]; 1.0 mg/kg): 86%
- % reduction in lymphocytes at 24 hr. (circulating lymphocytes [3]; 1.0 mg/kg): 61%
- % reduction in lymphocytes at 4 hr. (circulating lymphocytes [3]; 3.0 mg/kg): 81%
- % reduction in lymphocytes at 24 hr. (circulating lymphocytes [3]; 3.0 mg/kg): 75%
- % reduction in lymphocytes at 4 hr. (circulating lymphocytes [4]; 0.3 mg/kg): 74%
- % reduction in lymphocytes at 24 hr. (circulating lymphocytes [4]; 0.3 mg/kg): 30%
- % reduction in lymphocytes at 4 hr. (circulating lymphocytes [4]; 1.0 mg/kg): 85%
- % reduction in lymphocytes at 24 hr. (circulating lymphocytes [4]; 1.0 mg/kg): 68%
- % reduction in lymphocytes at 4 hr. (circulating lymphocytes [4]; 3.0 mg/kg): 85%
- % reduction in lymphocytes at 24 hr. (circulating lymphocytes [4]; 3.0 mg/kg): 76%
- % reduction in lymphocytes at 4 hr. (circulating lymphocytes [4]; 10.0 mg/kg): 84%
- % reduction in lymphocytes at 24 hr. (circulating lymphocytes [4]; 10.0 mg/kg): 88%
- Clinical Score on Day 24, Mean (C57BL/6 mice; 1.0 mg/kg once daily): 0.32
- Clinical Score on Day 24, Mean (C57BL/6 mice; 3.0 mg/kg once daily): 0.77
- Clinical Score on Day 24, Mean (C57BL/6 mice; 10.0 mg/kg once daily): 0.30
- disease progression as determined by the clinical scores (C57BL/6 mice; C57Bl/6 mice, prophylactic oral dosing): inhibits disease progression

— patent US8389509B2, “Substituted pyrazole compounds” (Bristol-Myers Squibb Company, priority 2009, dated 2013)
